Results published in PubChem BioAssay AID228 (DTP/NCI, 2004).
Where “and” joins values, the source holds several entries; their conditions need not be identical. Equal values may be shown once. Inconclusive results are not listed.

Tested on: BDF1 mice, Friend leukemia sc, tumor weight T/C
Assay: NCI In Vivo Anticancer Drug Screen. Data for tumor model Friend Virus Leukemia (Solid) (subcutaneous) in B6D2F1 (BDF1) mice
Conditions: endpoint: mean tumor weight, higher = larger tumour
Protocol: The antitumor activity of compounds was measured in mice bearing transplantable tumors. Survival or tumor size were measured and the results are expressed as the measurement made in the treated group (T) divided by the measurement made in the vehicle treated control group (C). The tumor model used in this assay is Friend Virus Leukemia (Solid) (subcutaneous) in B6D2F1 (BDF1) mice

[1] = dose: 25.0 mg/kg/injection, schedule: Q01DX011 (ip), vehicle: carboxymethylcellulose (CMC)
[2] = dose: 100.0 mg/kg/injection, schedule: Q01DX011 (ip), vehicle: carboxymethylcellulose (CMC)
[3] = dose: 150.0 mg/kg/injection, schedule: Q01DX011 (ip), vehicle: carboxymethylcellulose (CMC)
[4] = dose: 50.0 mg/kg/injection, schedule: Q01DX011 (ip), vehicle: carboxymethylcellulose (CMC)
[5] = dose: 15.0 mg/kg/injection, schedule: Q01DX011 (ip), vehicle: carboxymethylcellulose (CMC)

`CO[C@H]1[C@@H](O)C[C@H]2[C@@H]3CC=C4C[C@@H](O)CC[C@]4(C)[C@H]3CC[C@@]21C` was tested, and the T/C (dose: 10.0 mg/kg/injection, schedule: Q01DX011 (sc), vehicle: steriod suspending solution) was 77 % of control, the T/C (dose: 20.0 mg/kg/injection, schedule: Q01DX011 (sc), vehicle: steriod suspending solution) was 116 % of control and the T/C (dose: 40.0 mg/kg/injection, schedule: Q01DX011 (sc), vehicle: steriod suspending solution) was 115 % of control.

`Nc1ccccc1N` was tested, and the T/C [1] was 84 % of control, the T/C [2] was 11 % of control and 13 % of control and 18 % of control and the T/C [3] was 10 % of control.

`O=CN(O)CC(=O)O` was tested, and the T/C (dose: 125.0 mg/kg/injection, schedule: Q01DX011 (ip), vehicle: saline) was 154 % of control, the T/C (dose: 250.0 mg/kg/injection, schedule: Q01DX011 (ip), vehicle: saline) was 196 % of control and the T/C (dose: 375.0 mg/kg/injection, schedule: Q01DX011 (ip), vehicle: saline) was 193 % of control.

In the case of `Cc1nc2nc(N)nc(N)c2nc1C`, the T/C (dose: 13.12 mg/kg/injection, schedule: Q01DX011 (ip), vehicle: carboxymethylcellulose (CMC)) is reported as 103 % of control, the T/C (dose: 26.25 mg/kg/injection, schedule: Q01DX011 (ip), vehicle: carboxymethylcellulose (CMC)) is reported as 89 % of control and the T/C (dose: 52.5 mg/kg/injection, schedule: Q01DX011 (ip), vehicle: carboxymethylcellulose (CMC)) is reported as 52 % of control. The T/C (dose: 105.0 mg/kg/injection, schedule: Q01DX011 (ip), vehicle: carboxymethylcellulose (CMC)) was 61 % of control.

For `CCCn1cnc2c(=S)nc(N)[nH]c21`, the T/C (dose: 0.67 mg/kg/injection, schedule: Q01DX011 (ip), vehicle: carboxymethylcellulose (CMC)) was 67 % of control, the T/C (dose: 1.0 mg/kg/injection, schedule: Q01DX011 (ip), vehicle: carboxymethylcellulose (CMC)) was 67 % of control and the T/C (dose: 1.5 mg/kg/injection, schedule: Q01DX011 (ip), vehicle: carboxymethylcellulose (CMC)) was 28 % of control. The T/C (dose: 2.9 mg/kg/injection, schedule: Q01DX011 (ip), vehicle: carboxymethylcellulose (CMC)) was 32 % of control and the T/C (dose: 4.4 mg/kg/injection, schedule: Q01DX011 (ip), vehicle: carboxymethylcellulose (CMC)) was 32 % of control.

With `O=C1C(NC(=O)C2CCCCC2)=C(N2CC2)C(=O)C(NC(=O)C2CCCCC2)=C1N1CC1` the T/C (dose: 22.0 mg/kg/injection, schedule: Q01DX011 (ip), vehicle: carboxymethylcellulose (CMC)) was 106 % of control, the T/C (dose: 43.0 mg/kg/injection, schedule: Q01DX011 (ip), vehicle: carboxymethylcellulose (CMC)) was 82 % of control and the T/C (dose: 87.0 mg/kg/injection, schedule: Q01DX011 (ip), vehicle: carboxymethylcellulose (CMC)) was 62 % of control. The T/C (dose: 350.0 mg/kg/injection, schedule: Q01DX011 (ip), vehicle: carboxymethylcellulose (CMC)) was 61 % of control.

In the case of `O=C(Nc1ccc(C2=NCCN2)cc1)c1cccc(C(=O)Nc2ccc(C3=NCCN3)cc2)c1`, the T/C (dose: 25.0 mg/kg/injection, schedule: Q01DX011 (ip), vehicle: water) is reported as 72 % of control.

`CCn1cnc2c(=S)nc[nH]c21` was tested, and the T/C [1] was 105 % of control, the T/C [4] was 66 % of control and the T/C [2] was 12 % of control.

For `CCn1cnc2c(SC)nc(N)nc21`, the T/C [1] was 83 % of control, the T/C [4] was 73 % of control and the T/C [2] was 23 % of control.

In the case of `c1ccc(CSc2ncnc3nc[nH]c23)cc1`, the T/C (dose: 5.0 mg/kg/injection, schedule: Q01DX011 (ip), vehicle: carboxymethylcellulose (CMC)) is reported as 118 % of control, the T/C (dose: 10.0 mg/kg/injection, schedule: Q01DX011 (ip), vehicle: carboxymethylcellulose (CMC)) is reported as 90 % of control and the T/C [5] is reported as 109 % of control. For the same molecule, the T/C [1] was 91 % of control.

For `CC/C(=C(\CC)c1ccc(OC)cc1)c1ccc(O)cc1`, the T/C (dose: 3.0 mg/kg/injection, schedule: Q01DX011 (sc), vehicle: steriod suspending solution) was 69 % of control, the T/C (dose: 7.0 mg/kg/injection, schedule: Q01DX011 (sc), vehicle: steriod suspending solution) was 101 % of control and the T/C (dose: 15.0 mg/kg/injection, schedule: Q01DX011 (sc), vehicle: steriod suspending solution) was 79 % of control. For the same molecule, the T/C (dose: 30.0 mg/kg/injection, schedule: Q01DX011 (sc), vehicle: steriod suspending solution) was 55 % of control, the T/C (dose: 240.0 mg/kg/injection, schedule: Q01DX011 (sc), vehicle: steriod suspending solution) was 65 % of control and the T/C (dose: 480.0 mg/kg/injection, schedule: Q01DX011 (sc), vehicle: steriod suspending solution) was 63 % of control. For the same molecule, the T/C (dose: 960.0 mg/kg/injection, schedule: Q01DX011 (sc), vehicle: steriod suspending solution) was 62 % of control and the T/C (dose: 1920.0 mg/kg/injection, schedule: Q01DX011 (sc), vehicle: steriod suspending solution) was 63 % of control.

With `NNC(=O)c1ccncc1` the T/C [5] was 80 % of control, the T/C (dose: 30.0 mg/kg/injection, schedule: Q01DX011 (ip), vehicle: carboxymethylcellulose (CMC)) was 75 % of control and the T/C (dose: 121.0 mg/kg/injection, schedule: Q01DX011 (ip), vehicle: carboxymethylcellulose (CMC)) was 55 % of control.

For `CN=C(N)c1ccc(N=C(N)c2ccc(C(N)=Nc3ccc(C(N)=NC)cc3)cc2)cc1`, the T/C (dose: 7.5 mg/kg/injection, schedule: Q01DX011 (ip), vehicle: saline) was 182 % of control, the T/C (dose: 10.0 mg/kg/injection, schedule: Q01DX011 (ip), vehicle: saline) was 183 % of control and the T/C (dose: 15.0 mg/kg/injection, schedule: Q01DX011 (ip), vehicle: saline) was 165 % of control.

With `O=c1[nH]cc(N(CCCl)CCCl)c(=O)[nH]1` the T/C (dose: 0.21 mg/kg/injection, schedule: Q01DX011 (ip), vehicle: carboxymethylcellulose (CMC)) was 87 % of control, the T/C (dose: 0.42 mg/kg/injection, schedule: Q01DX011 (ip), vehicle: carboxymethylcellulose (CMC)) was 99 % of control and the T/C (dose: 0.42 mg/kg/injection, schedule: Q01DX011 (ip), vehicle: saline) was 53 % of control. The T/C (dose: 0.85 mg/kg/injection, schedule: Q01DX011 (ip), vehicle: carboxymethylcellulose (CMC)) was 36 % of control, the T/C (dose: 0.85 mg/kg/injection, schedule: Q01DX011 (ip), vehicle: saline) was 47 % of control and the T/C (dose: 1.3 mg/kg/injection, schedule: Q01DX011 (ip), vehicle: saline) was 20 % of control. The T/C (dose: 1.7 mg/kg/injection, schedule: Q01DX011 (ip), vehicle: saline) was 13 % of control.

For `CCC(=O)NC1=C(N2CC2)C(=O)C(NC(=O)CC)=C(N2CC2)C1=O`, the T/C (dose: 0.39 mg/kg/injection, schedule: Q01DX011 (ip), vehicle: carboxymethylcellulose (CMC)) was 61 % of control, the T/C (dose: 0.78 mg/kg/injection, schedule: Q01DX011 (ip), vehicle: carboxymethylcellulose (CMC)) was 48 % of control and the T/C (dose: 1.56 mg/kg/injection, schedule: Q01DX011 (ip), vehicle: carboxymethylcellulose (CMC)) was 24 % of control. The T/C (dose: 3.12 mg/kg/injection, schedule: Q01DX011 (ip), vehicle: carboxymethylcellulose (CMC)) was 7 % of control.

With `NC(N)=N/N=C/C=N/N=C(N)N` the T/C (dose: 50.0 mg/kg/injection, schedule: Q01DX011 (ip), vehicle: saline) was 189 % of control.

`O=C(C[N+]12CN3CN(CN(C3)C1)C2)c1ccc(Cl)cc1` was tested, and the T/C (dose: 37.5 mg/kg/injection, schedule: Q01DX011 (ip), vehicle: carboxymethylcellulose (CMC)) was 101 % of control, the T/C [3] was 117 % of control and the T/C (dose: 300.0 mg/kg/injection, schedule: Q01DX011 (ip), vehicle: carboxymethylcellulose (CMC)) was 93 % of control.

`Fc1ccc(CSc2ncnc3c2ncn3C2CCCCO2)cc1` (configuration not stated) was tested, and the T/C (dose: 90.0 mg/kg/injection, schedule: Q01DX011 (ip), vehicle: carboxymethylcellulose (CMC)) was 10 % of control and the T/C (dose: 180.0 mg/kg/injection, schedule: Q01DX011 (ip), vehicle: carboxymethylcellulose (CMC)) was 1 % of control.

In the case of `C[C@]12CC[C@H](OC3OC(CO)C(O)C(O)C3O)C[C@H]1CC[C@@H]1[C@@H]2CC[C@]2(C)[C@@H](C3=CCOC3=O)CC[C@]12O` (some centres not stated), the T/C (dose: 0.1 mg/kg/injection, schedule: Q01DX011 (ip), vehicle: carboxymethylcellulose (CMC)) is reported as 69 % of control.

For `CC(=O)OCC(=O)[C@@]1(O)CC[C@H]2[C@@H]3CCC4=CC(=O)CC[C@]4(C)[C@H]3C(=O)C[C@@]21C`, the T/C (dose: 5.62 mg/kg/injection, schedule: Q01DX011 (sc), vehicle: steriod suspending solution) was 59 % of control, the T/C (dose: 8.0 mg/kg/injection, schedule: Q01DX011 (sc), vehicle: steriod suspending solution) was 97 % of control and the T/C (dose: 11.25 mg/kg/injection, schedule: Q01DX011 (sc), vehicle: steriod suspending solution) was 33 % of control. The T/C (dose: 16.0 mg/kg/injection, schedule: Q01DX011 (sc), vehicle: steriod suspending solution) was 69 % of control, the T/C (dose: 22.5 mg/kg/injection, schedule: Q01DX011 (sc), vehicle: steriod suspending solution) was 21 % of control and the T/C (dose: 31.0 mg/kg/injection, schedule: Q01DX011 (sc), vehicle: steriod suspending solution) was 15 % of control and 29 % of control (2×). For the same molecule, the T/C (dose: 34.0 mg/kg/injection, schedule: Q01DX011 (sc), vehicle: steriod suspending solution) was 50 % of control, the T/C (dose: 45.0 mg/kg/injection, schedule: Q01DX011 (sc), vehicle: steriod suspending solution) was 13 % of control and the T/C (dose: 62.0 mg/kg/injection, schedule: Q01DX011 (sc), vehicle: steriod suspending solution) was 7 % of control and 9 % of control and 18 % of control. For the same molecule, the T/C (dose: 68.0 mg/kg/injection, schedule: Q01DX011 (sc), vehicle: steriod suspending solution) was 28 % of control, the T/C (dose: 125.0 mg/kg/injection, schedule: Q01DX011 (sc), vehicle: steriod suspending solution) was 3 % of control and 15 % of control and 20 % of control and the T/C (dose: 250.0 mg/kg/injection, schedule: Q01DX011 (sc), vehicle: steriod suspending solution) was 3 % of control and 6 % of control and 20 % of control.
